Patent publication US20070071725A1, “Nitric oxide synthase gene transfer” (priority 2002, published 2007)
Entries after “also recorded” stand apart in the source; their conditions may differ.

What was measured:
[1] = system: right double atrial preparations; assay: Heart rate (chronotropic) response of atrial preparations to carbachol; set-up: species or system rat
Protocol: Sutures (Ethicon, 5/0 mersilk) were placed at the lateral edges of both atria and the preparation was transferred to a pre-heated (37±0.1° C.) water-jacketed organ bath containing 100 ml of continuously oxygenated Tyrode's solution. The atria were vertically mounted with the suture in the left atrium connected to a stainless steel hook and the suture in the right atrium attached to an isometric force transducer (Harvard Apparatus, Model 60-2997, Mass. USA) connected to an amplifier. Heart rate was triggered from contraction and recorded in real time (Biopac MP100 with Acqknowledge software).
Preparations were equilibrated in Tyrode's solution for 60-90 minutes at 37° C. until a stable baseline heart rate was achieved. The right vagus was placed through a pair of custom-built platinum ring electrodes and stimulated at 3, 5, 7 and 10 Hz (15 V, 1 ms pulse duration; order of stimulations randomised) for 25 seconds, with an interval of at least 1 minute between successive stimulations. In some experiments vagal stimulation was repeated after application of the NO donor sodium nitroprusside (SNP; 20 μmol/L, 10 minutes incubation; Sigma). In addition, muscarinic responsiveness of atrial preparations was assessed using cumulative concentration-response curves to carbachol (0.1-0.5 μmol/L; Sigma; 2 minutes incubation at each concentration).

cGMP = cGMP efflux concentration in perfused right atrial preparation; set-up: species or system rat; conditions: 0.3 μmol/L, SHR vs WKY
Protocol: Isolated, perfused, beating atria were prepared by previously described method33,34. In brief, the right rat atrium was dissected from the heart after the animal was killed. A cannula containing 2 small catheters sealed within it was inserted into the atrium and secured by ligatures. The outer tip of the atrial cannula was open to allow for outflow. The cannulated atrium was transferred to a preheated (36.5 […]), continuously oxygenated, waterjacketed organ chamber, immediately perfused with oxygenated Tyrode's solution by means of a peristaltic pump (0.5 ml/min).
The atria were perfused for 60 minutes to stabilize. […]
The radioactivity of [^3H]inulin in atrial perfusate was measured with a liquid scintillation counter, and the amount of ECF translocated through the atrial wall was caculated, the amount of ECF translocated through the atrial wall was calculated as: ECF translocated (μl/min/g atrial wet wt)=total radioactivity in the perfusate (cpm/min)×1000/radioactivity in the pericardial reservoir (cpm/μl)×atrial wet wt (mg).
For measurement of cGMP concentration in perfusate, 500 μl of the perfusate was treated with trichloroacetic acid to a final concentration of 6% for 15 minutes at room temperature and centrifuged at 4° C. […] The amount of cGMP efflux was expressed as pmol cGMP/min/g atrial tissue. […]

isolated right atrium = system: isolated right atrium; set-up: species or system SD rat; conditions: 100 μM, Ad.PRS-nNOS treated atria, n=6
isolated right atria = assay: Evoked [3H]NE release from isolated right atria of SHR and WKY five days after percutaneous gene transfer; set-up: species or system rat; conditions: 10 μmol/L
isolated atria = assay: [3H]ACh release from isolated atria on field stimulation; set-up: species or system rat; conditions: 10 μmol/L, 5 Hz field stimulation, WKY
Protocol: Animals were killed and the right atria removed as described above. The preparation was then transferred to a preheated (37 ??0.2 ?C), continuously oxygenated, water-jacketed organ bath containing 4 ml of Tyrode's solution where the atrium was pinned flat between two parallel silver stimulating electrodes 10 mm apart. […] After a 45 minutes equilibration period (where the Tyrode's solution was replaced every 15 minutes), the atrium was stimulated at 5 Hz (15V, 1 ms pulse duration) for one minute and then again after another minute to stimulate acetylcholine turnover. […]
Following the wash period superfusion was stopped and the bath solution replaced every 3 minutes with a 0.5 ml sample being taken on every change of solution. This sample was added to 4.5 ml of scintillation fluid (Ecoscint A, National Diagnostics) and the amount of radioactivity in each sample (disintegrations per minute) measured using a liquid scintillation counter (Tri-carb 2800TR, Packard). […] At the end of the experiment, the atrium was immersed overnight in Tyrode's solution containing 4 U/ml papain (Sigma) and the radioactivity contained in the extract determined. [3H] outflow was expressed as a percentage of the total radioactivity in the atrium at the end of the experiment and that released after superfusion.

C[N+](C)(C)CCOC(N)=O [CCh, carbachol]
heart rate response, SHR compared to WKY ([1]; 0.1 μmol/L): significantly increased heart rate response in SHR compared to WKY | heart rate response, SHR compared to WKY ([1]; 0.2 μmol/L): No significantly changed | heart rate response, SHR compared to WKY ([1]; 0.5 μmol/L): significantly increased heart rate response in SHR compared to WKY | cGMP efflux concentration (cGMP): significantly increased cGMP efflux concentration in the SHR

NC(=NCCC[C@H](N)C(=O)O)N[N+](=O)[O-] [L-NNA, Nω-Nitro-Larginine]
effect on Ad.PRS-nNOS-induced attenuation of NE release (isolated right atrium): prevented the Ad.PRS-nNOS-induced attenuation of NE release; also recorded: reverse this response

O=c1onc2cnc3ccccc3n12 [ODQ, 1H-(1,2,4)oxadiazolo(4,3-a)quinoxaline-1-one]
effect on NE release (isolated right atria; Ad.PRS-eGFP treated SHR): did not effect | effect on NE release (isolated right atria; Ad.PRS-nNOS or Ad.PRS-eGFP treated WKY atria): significantly enhanced | effect on Ad.PRS-nNOS attenuation of NE release (isolated right atria; Ad.PRS-nNOS treated SHR): reversed | effect on [3H]ACh release (isolated atria): significantly enhanced
